Read-outs that look alike come from different tables or passages of the source.
Target: T1, ICl,SWELL (SWELL1-LRRC8 channel) in HEK-293 cells (Homo sapiens, UniProt Q8IWT6)
T1 construct: applied when the endogenous HEK-293 cell ICl,SWELL current density reached 30 pA/pF; endogenous in cells; host or cells: HEK-293 (ATCC, #CRL-1573)
T1 sequence (Q8IWT6 1-810): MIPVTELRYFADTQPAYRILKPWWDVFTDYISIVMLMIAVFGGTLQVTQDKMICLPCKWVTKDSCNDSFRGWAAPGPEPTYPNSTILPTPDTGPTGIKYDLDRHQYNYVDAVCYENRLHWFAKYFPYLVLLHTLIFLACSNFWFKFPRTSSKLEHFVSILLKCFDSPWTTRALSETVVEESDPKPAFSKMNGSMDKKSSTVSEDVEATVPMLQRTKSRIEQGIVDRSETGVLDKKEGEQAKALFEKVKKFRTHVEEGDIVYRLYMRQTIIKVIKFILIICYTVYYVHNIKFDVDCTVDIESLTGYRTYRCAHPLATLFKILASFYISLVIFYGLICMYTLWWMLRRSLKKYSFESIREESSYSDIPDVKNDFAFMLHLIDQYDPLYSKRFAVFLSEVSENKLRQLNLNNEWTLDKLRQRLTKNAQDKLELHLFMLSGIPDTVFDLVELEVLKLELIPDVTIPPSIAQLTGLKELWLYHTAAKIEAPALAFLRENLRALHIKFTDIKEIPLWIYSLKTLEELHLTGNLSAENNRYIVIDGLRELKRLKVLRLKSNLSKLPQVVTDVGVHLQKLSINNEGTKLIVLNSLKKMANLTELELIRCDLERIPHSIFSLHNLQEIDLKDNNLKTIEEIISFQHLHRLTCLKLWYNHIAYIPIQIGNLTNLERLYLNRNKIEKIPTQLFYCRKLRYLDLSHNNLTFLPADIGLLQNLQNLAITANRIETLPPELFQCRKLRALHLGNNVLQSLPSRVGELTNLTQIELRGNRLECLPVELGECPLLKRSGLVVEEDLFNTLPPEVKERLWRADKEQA
Assay: ICl,SWELL inhibition after hypotonic activation (open channel), patch-clamp
Format: cell-based
Details: for inhibition of channels first opened by hypotonic activation: 1 μM
Description: Patch-clamp recordings of β-cells, 3T3-F442A adipocytes, and mature human adipocytes were performed as described previously[24],[28]. Briefly, all patch-clamp experiments were conducted at room temperature using either an Axopatch 200B amplifier or a MultiClamp 700B amplifier paired to a Digidata 1550 digitizer. Data were acquired using pClamp 10.4 software. For hypotonic swelling, extracellular solution consisted of the following (in mM): 90 NaCl, 2 CsCl, 1 MgCl2, 1 CaCl2, 10 HEPES, 10 mannitol, pH 7.4 with NaOH (210 mOsm/kg). The isotonic extracellular solution consisted of the same composition above but with 110 mM instead of 10 mM mannitol (300 mOsm/kg). The swell-activated current was elicited by perfusing cells with a hypotonic solution (210 mOsm/kg). […] For perforated-patch recordings in isolated human adipocytes, the intracellular solution was as above but without ATP and GTP, and contained 360 μg/ml Amphotericin B (Sigma). The holding potential was 0 mV. Voltage ramps from −100 to +100 mV (at 0.4 mV/ms) were applied every 4 s. The sampling interval was 100 μs and filtered at 10 kHz. For perforated-patch recordings, cells with a membrane resistance below 1 GΩ or access resistance above 20 MΩ were discarded. […]

[1] = HEK-293 cells, hypotonic (210 mOsm) stimulation, outward current, compound applied at 30 pA/pF, read-out: IC50 for ICl,SWELL inhibition

CCCCC1(C2CCCC2)Cc2cc(OCC(=O)O)c(Cl)c(Cl)c2C1=O (centres unmarked) [Inactive 1, 2-((2-butyl-6,7-dichloro-2-cyclopentyl-1-oxo-2,3-dihydro-1H-inden-5-yl)oxy)acetic acid]
IC50 [1]: 35.5 µM

CCCCC1(C2CCCC2)Cc2cc(OCCCC(=O)O)c(Cl)c(Cl)c2C1=O (centres unmarked) [SN-401, 4-((2-butyl-6,7-dichloro-2-cyclopentyl-1-oxo-2,3-dihydro-1H-inden-5-yl)oxy)butanoic acid]
IC50: 3.9 µM
inhibition of channels first opened by hypotonic activation: relatively ineffective
concentrations required to effectively inhibit channels when first opened by hypotonic activation (HEK-293 cells): 6 to 10 µM

CCCCC1(C2CCCC2)Cc2cc(OCCCCCC(=O)O)c(Cl)c(Cl)c2C1=O (centres unmarked) [SN-406, 6-((2-butyl-6,7-dichloro-2-cyclopentyl-1-oxo-2,3-dihydro-1H-inden-5-yl)oxy)hexanoic acid]
inhibition of channels first opened by hypotonic activation: relatively ineffective
ICl,SWELL inhibitory activity compared to SN-401 (HEK-293 cells): increased ICl,SWELL inhibitory activity
concentrations required to effectively inhibit channels when first opened by hypotonic activation (HEK-293 cells): 6 to 10 µM
IC50 [1]: 3.1 µM
